From patent US20250304620A1, “ANTIMICROBIAL PEPTIDE AND APPLICATION THEREOF” (priority 2023, published 2025)
Values after ≈ are worked out from the molar mass of the structure shown. Marks after values point to notes of the source that are not given here. Non-standard residues stand in square brackets, D forms with d. Residues, ends and D or L forms follow the SMILES beside them. dPhe(3,4-F2) = N[C@H](Cc1ccc(F)c(F)c1)C(=O)O; dPhe(4-Cl) = N[C@H](Cc1ccc(Cl)cc1)C(=O)O

Columns and labels:
[1] = tested on: Bacillus subtilis ATCC 6633; format: cell-based
In short: (§1)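 Susceptibility testing used the CLSI-standard microdilution method with twofold serial dilutions of the antimicrobial peptides to give MIC values, replicated 5 times in parallel.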

[2] = tested on: Candida albicans ATCC MYA-2876; format: cell-based
In short: as §1

[3] = tested on: Candida glabrata ATCC 15126; format: cell-based
In short: as §1

[4] = tested on: Candida krusei ATCC 6258; format: cell-based
In short: as §1

[5] = tested on: Candida utilis ATCC 9950; format: cell-based
In short: as §1

[6] = tested on: Corynebacterium ATCC 7715; format: cell-based
In short: as §1

[7] = tested on: Klebsiella pneumoniae ATCC 700603; format: cell-based
In short: as §1

[8] = tested on: Pseudomonas aeruginosa ATCC 27853; format: cell-based
In short: as §1

[9] = tested on: Salmonella typhimurium ATCC 14028; format: cell-based
In short: as §1

[10] = tested on: Serratia marcescens ATCC 29021; format: cell-based
In short: as §1

[11] = tested on: Staphylococcus aureus ATCC 25923; format: cell-based
In short: as §1

[12] = tested on: Shigella flexneri ATCC 12022; experiment: MIC against clinically common bacterial strain; format: cell-based
In short: as §1

[13] = tested on: Methicillin-resistant Staphylococcus aureus (MRSA); format: cell-based; settings: Methicillin-resistant
In short: (§2)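 Read-out is the minimum inhibitory concentration, obtained by twofold serial dilution in microdilution format per CLSI guidance, with five parallel runs.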

[14] = tested on: carbapenem-resistant Escherichia coli (CREC); format: cell-based; settings: carbapenem-resistant (CREC)
In short: as §2

[15] = tested on: carbapenem-resistant Klebsiella pneumoniae (CRKP); format: cell-based; settings: carbapenem-resistant (CRKP)
In short: as §2

[16] = tested on: carbapenem-resistant Pseudomonas aeruginosa (CRPA); format: cell-based; settings: carbapenem-resistant (CRPA)
In short: as §2

[17] = tested on: vancomycin-resistant Enterococcus (VRE); format: cell-based
In short: as §2

[18] = tested on: rabbit red blood cells; format: cell-based; settings: red cells of rabbit, 1 h
[19] = tested on: Pseudomonas aeruginosa ATCC 27853; experiment: Injectable formulations on mice infected with peritonitis; format: in vivo, ICR mice; settings: twice a day for 3 days; for Number of mice that died on each day after infection: day 1 / Number of mice that died on each day after infection: day 2 / Number of mice that died on each day after infection: day 3 / Number of mice that died on each day after infection: day 4 / Number of mice that died on each day after infection: day 5 / Average survival times (Days): n = 10; for Average survival times (Days): observed for 14 d
In short: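 Survival readout: deaths and survival time tracked for 14 d. Treatment was tail-vein injection by body weight, twice a day for 3 consecutive days, starting right after intraperitoneal challenge with 0.2 mL of 1×10^9 CFU/mL P. aeruginosa ATCC 27853 in male and female ICR mice.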

[20] = Serum stability assay (residual level by RP-HPLC); settings: human

## CC(=O)N[C@H](CCCNC(=N)N)C(=O)N[C@H](CCCCN)C(=O)N[C@H](CC(C)C)C(=O)N[C@H](CC(C)C)C(=O)N[C@H](Cc1ccc(F)c(F)c1)C(=O)N[C@H](CCCCN)C(=O)N[C@H](CC(C)C)C(=O)N[C@H](CCCCN)C(=O)N[C@H](Cc1ccc(F)c(F)c1)C(=O)N[C@H](CCCCN)C(=O)N[C@H](CCCNC(=N)N)C(N)=O [LV-6] (Ac-[dR][dK][dL][dL][dPhe(3,4-F2)][dK][dL][dK][dPhe(3,4-F2)][dK][dR]-NH2)
[1]
  MIC Bacillus subtilis ATCC 6633: 4 µg/mL (≈ 2.52 µM)
[2]
  MIC Candida albicans ATCC MYA-2876: 16 µg/mL (≈ 10.1 µM)
[3]
  MIC Candida glabrata ATCC 15126: 8 µg/mL (≈ 5.03 µM)
[4]
  MIC Candida krusei ATCC 6258: 4 µg/mL (≈ 2.52 µM)
[5]
  MIC Candida utilis ATCC 9950: 8 µg/mL (≈ 5.03 µM)
[6]
  MIC Corynebacterium ATCC 7715: 2 µg/mL (≈ 1.26 µM)
[7]
  MIC Klebsiella pneumoniae ATCC 700603: 4 µg/mL (≈ 2.52 µM)
[8]
  MIC Pseudomonas aeruginosa ATCC 27853: 1 µg/mL (≈ 0.629 µM)
[9]
  MIC Salmonella typhimurium ATCC 14028: 2 µg/mL (≈ 1.26 µM)
[10]
  MIC Serratia marcescens ATCC 29021: 8 µg/mL (≈ 5.03 µM)
[11]
  MIC Staphylococcus aureus ATCC 25923: 1 µg/mL (≈ 0.629 µM)
[12]
  MIC Shigella flexneri ATCC 12022: 4 µg/mL (≈ 2.52 µM)
[13]
  MIC MRSA: 4 µg/mL (≈ 2.52 µM)
[14]
  MIC CREC: 2 µg/mL (≈ 1.26 µM)
[15]
  MIC CRKP: 8 µg/mL (≈ 5.03 µM)
[16]
  MIC CRPA: 8 µg/mL (≈ 5.03 µM)
[17]
  MIC VRE: 2 µg/mL (≈ 1.26 µM)
[18]
  MHC (minimum hemolytic concentration, lowest concentration causing 10% hemolysis): >1000 µg/mL
[19]; 0.2 mg/kg via tail vein
  Number of mice that died on each day after infection: day 1: 2 Mouse
  Number of mice that died on each day after infection: day 2: 2 Mouse
  Number of mice that died on each day after infection: day 3: 1 Mouse
  Number of mice that died on each day after infection: day 4: 0 Mouse
  Number of mice that died on each day after infection: day 5: 0 Mouse
  Average survival times (Days): 7.9** Days
[19]; 1 mg/kg via tail vein
  Number of mice that died on each day after infection: day 1: 1 Mouse
  Number of mice that died on each day after infection: day 2: 1 Mouse
  Number of mice that died on each day after infection: day 3: 0 Mouse
  Number of mice that died on each day after infection: day 4: 1 Mouse
  Number of mice that died on each day after infection: day 5: 0 Mouse
  Average survival times (Days): 10.5**** Days
[19]; 5 mg/kg via tail vein
  Number of mice that died on each day after infection: day 1: 1 Mouse
  Number of mice that died on each day after infection: day 2: 2 Mouse
  Number of mice that died on each day after infection: day 3: 1 Mouse
  Number of mice that died on each day after infection: day 4: 0 Mouse
  Number of mice that died on each day after infection: day 5: 0 Mouse
  Average survival times (Days): 9.2*** Days
[19]; tail vein, observed 14 d
  survival time of mice infected with Pseudomonas aeruginosa: superior to those of the Levofloxacin group
[20]
  remaining at 12 h, 0.91 mg/mL: 98%

## CC(=O)N[C@H](CCCNC(=N)N)C(=O)N[C@H](CCCCN)C(=O)N[C@H](CC(C)C)C(=O)N[C@H](CC(C)C)C(=O)N[C@H](Cc1ccc(Cl)cc1)C(=O)N[C@H](CCCCN)C(=O)N[C@H](CC(C)C)C(=O)N[C@H](CCCCN)C(=O)N[C@H](Cc1ccc(Cl)cc1)C(=O)N[C@H](CCCCN)C(=O)N[C@H](CCCNC(=N)N)C(N)=O [LV-7] (Ac-[dR][dK][dL][dL][dPhe(4-Cl)][dK][dL][dK][dPhe(4-Cl)][dK][dR]-NH2)
[1]
  MIC Bacillus subtilis ATCC 6633: 4 µg/mL (≈ 2.52 µM)
[2]
  MIC Candida albicans ATCC MYA-2876: 8 µg/mL (≈ 5.04 µM)
[3]
  MIC Candida glabrata ATCC 15126: 8 µg/mL (≈ 5.04 µM)
[4]
  MIC Candida krusei ATCC 6258: 8 µg/mL (≈ 5.04 µM)
[5]
  MIC Candida utilis ATCC 9950: 8 µg/mL (≈ 5.04 µM)
[6]
  MIC Corynebacterium ATCC 7715: 4 µg/mL (≈ 2.52 µM)
[7]
  MIC Klebsiella pneumoniae ATCC 700603: 2 µg/mL (≈ 1.26 µM)
[8]
  MIC Pseudomonas aeruginosa ATCC 27853: 2 µg/mL (≈ 1.26 µM)
[9]
  MIC Salmonella typhimurium ATCC 14028: 4 µg/mL (≈ 2.52 µM)
[10]
  MIC Serratia marcescens ATCC 29021: 8 µg/mL (≈ 5.04 µM)
[11]
  MIC Staphylococcus aureus ATCC 25923: 1 µg/mL (≈ 0.63 µM)
[12]
  MIC Shigella flexneri ATCC 12022: 4 µg/mL (≈ 2.52 µM)
[13]
  MIC MRSA: 2 µg/mL (≈ 1.26 µM)
[14]
  MIC CREC: 8 µg/mL (≈ 5.04 µM)
[15]
  MIC CRKP: 4 µg/mL (≈ 2.52 µM)
[16]
  MIC CRPA: 2 µg/mL (≈ 1.26 µM)
[17]
  MIC VRE: 4 µg/mL (≈ 2.52 µM)
[18]
  MHC (minimum hemolytic concentration, lowest concentration causing 10% hemolysis): >1000 µg/mL
[19]; 1 mg/kg via tail vein
  Number of mice that died on each day after infection: day 1: 0 Mouse
  Number of mice that died on each day after infection: day 2: 1 Mouse
  Number of mice that died on each day after infection: day 3: 1 Mouse
  Number of mice that died on each day after infection: day 4: 1 Mouse
  Number of mice that died on each day after infection: day 5: 1 Mouse
  Average survival times (Days): 9.8*** Days
[20]
  remaining at 12 h, 0.91 mg/mL: 98.9%
